# US20180237441A1, “Chemical Compounds” (GlaxoSmithKline Intellectual Property (No.2) Limited, priority 2015, published 2018)
# Target: T1, PERK (Homo sapiens, UniProt Q9NZJ5)
# T1 sequence (Q9NZJ5 30-1116): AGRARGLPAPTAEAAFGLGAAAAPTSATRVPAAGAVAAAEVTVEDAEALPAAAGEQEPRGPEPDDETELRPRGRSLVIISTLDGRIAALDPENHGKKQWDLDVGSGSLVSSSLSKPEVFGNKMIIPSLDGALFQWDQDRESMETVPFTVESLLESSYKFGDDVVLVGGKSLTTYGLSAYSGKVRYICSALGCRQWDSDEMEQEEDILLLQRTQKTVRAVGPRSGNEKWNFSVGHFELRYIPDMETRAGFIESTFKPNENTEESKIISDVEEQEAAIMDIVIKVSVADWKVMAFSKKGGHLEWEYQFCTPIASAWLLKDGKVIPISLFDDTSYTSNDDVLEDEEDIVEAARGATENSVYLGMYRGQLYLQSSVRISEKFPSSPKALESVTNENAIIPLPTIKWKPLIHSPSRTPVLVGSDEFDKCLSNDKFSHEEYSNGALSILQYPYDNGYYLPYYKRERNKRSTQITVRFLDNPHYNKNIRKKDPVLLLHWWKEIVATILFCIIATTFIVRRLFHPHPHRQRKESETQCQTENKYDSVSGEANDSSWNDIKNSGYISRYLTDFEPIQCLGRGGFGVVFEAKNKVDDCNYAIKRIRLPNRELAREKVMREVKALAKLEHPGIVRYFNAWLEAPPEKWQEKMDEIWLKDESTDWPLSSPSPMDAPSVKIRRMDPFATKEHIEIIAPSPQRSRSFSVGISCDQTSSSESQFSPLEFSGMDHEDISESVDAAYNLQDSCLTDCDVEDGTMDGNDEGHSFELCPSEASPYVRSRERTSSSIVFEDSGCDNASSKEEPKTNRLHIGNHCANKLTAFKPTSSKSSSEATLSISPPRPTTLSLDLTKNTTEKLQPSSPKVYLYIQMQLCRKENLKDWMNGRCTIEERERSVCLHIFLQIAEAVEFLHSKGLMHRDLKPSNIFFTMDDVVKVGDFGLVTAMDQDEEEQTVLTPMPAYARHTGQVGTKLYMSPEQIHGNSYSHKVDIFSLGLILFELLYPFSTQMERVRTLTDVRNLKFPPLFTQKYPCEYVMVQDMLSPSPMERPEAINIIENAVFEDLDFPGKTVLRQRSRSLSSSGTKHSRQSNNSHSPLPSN
# Assay: PERK enzyme assay (HTRF)
# Format: biochemical
# Conditions: 500 μM ATP; at least one experimental run; read-out: PERK Enzyme (500 μM ATP) IC50
# How it was run: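 HTRF read-out after 2 h of EDTA-quenched reactions, detecting phospho-eIF2α with Eu/APC reagents, gave IC50 values. Reaction: 0.75 nM GST-PERK, 30–60 min compound pre-incubation (max 1% DMSO), then 60 min with 40 nM biotin-eIF2α and 500 μM ATP, HEPES pH 7.5 buffer.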
row,SMILES,IC50
1,"CN1C(=O)N(c2ccc(-c3cn(C)c4ncnc(N)c34)c(F)c2)CC1c1cc(F)cc(F)c1 (stereo not shown) [Example 25, 1-(4-(4-amino-7-methyl-7H-pyrrolo[2,3-d]pyrimidin-5-yl)-3-fluorophenyl)-4-(3,5-difluorophenyl)-3-methylimidazolidin-2-one]",74.2 nM
2,"CN1C(=O)N(c2ccc(-c3cn(C)c4ncnc(N)c34)c(Cl)c2)CC1c1cc(F)cc(F)c1 (single isomer, unassigned) [Example 127, 1-(4-(4-amino-7-methyl-7H-pyrrolo[2,3-d]pyrimidin-5-yl)-3-chlorophenyl)-4-(3,5-difluorophenyl)-3-methylimidazolidin-2-one]",6.1 nM

# Same assay, conditions: PERK Enzyme (500 μM ATP) IC50; at least one experimental run; read-out: PERK Activity
row,SMILES,IC50
1,"CN1C(=O)N(c2ccc(-c3cn(C)c4ncnc(N)c34)c(F)c2)CC1c1cc(F)cc(Cl)c1 (single isomer, unassigned) [Example 51, 1-(4-(4-amino-7-methyl-7H-pyrrolo[2,3-d]pyrimidin-5-yl)-3-fluorophenyl)-4-(3-chloro-5-fluorophenyl)-3-methylimidazolidin-2-one]",< 100 nM
2,"CCN1C(=O)N(c2ccc(-c3cn(C)c4nc(C)nc(N)c34)c(F)c2)CC1c1cc(F)ccc1F (single isomer, unassigned) [Example 45, 1-(4-(4-amino-2,7-dimethyl-7H-pyrrolo[2,3-d]pyrimidin-5-yl)-3-fluorophenyl)-4-(2,5-difluorophenyl)-3-ethylimidazolidin-2-one]",> 1000 nM
3,"CN1C(=O)N(c2ccc(-c3cn(C4CC4)c4ncnc(N)c34)c(F)c2)CC1c1cc(F)ccc1F (stereo not shown) [Example 144, 1-(4-(4-amino-7-cyclopropyl-7H-pyrrolo[2,3-d]pyrimidin-5-yl)-3-fluorophenyl)-4-(2,5-difluorophenyl)-3-methylimidazolidin-2-one]",< 100 nM
4,"CCn1cc(-c2ccc(N3CC(c4ccc(F)cc4F)N(C)C3=O)cc2F)c2c(N)nc(C)nc21 (stereo not shown) [Example 109, 1-(4-(4-amino-7-ethyl-2-methyl-7H-pyrrolo[2,3-d]pyrimidin-5-yl)-3-fluorophenyl)-4-(2,4-difluorophenyl)-3-methylimidazolidin-2-one]",< 100 nM
5,"COc1cccc(C2CN(c3ccc(-c4cn(C)c5ncnc(N)c45)c(F)c3)C(=O)N2C)c1 (single isomer, unassigned) [Example 103, 1-(4-(4-amino-7-methyl-7H-pyrrolo[2,3-d]pyrimidin-5-yl)-3-fluorophenyl)-4-(3-methoxyphenyl)-3-methylimidazolidin-2-one]",< 100 nM
6,"Cc1nc(N)c2c(-c3ccc(N4CC(c5ccc(F)cc5)N(C)C4=O)cc3F)cn(C)c2n1 (stereo not shown) [Example 69, 1-(4-(4-amino-2,7-dimethyl-7H-pyrrolo[2,3-d]pynmidin-5-yl)-3-fluorophenyl)-4-(4-fluorophenyl)-3-methylimidazolidin-2-one]",< 100 nM
7,"CN1C(=O)N(c2ccc(-c3cn(C)c4ncnc(N)c34)c(F)c2)CC1c1cc(F)cc(F)c1 (stereo not shown) [Example 25, 1-(4-(4-amino-7-methyl-7H-pyrrolo[2,3-d]pyrimidin-5-yl)-3-fluorophenyl)-4-(3,5-difluorophenyl)-3-methylimidazolidin-2-one]",< 100 nM
8,"CN1C(=O)N(c2ccc(-c3cn(C)c4ncnc(N)c34)c(Cl)c2)CC1c1cc(F)cc(F)c1 (single isomer, unassigned) [Example 127, 1-(4-(4-amino-7-methyl-7H-pyrrolo[2,3-d]pyrimidin-5-yl)-3-chlorophenyl)-4-(3,5-difluorophenyl)-3-methylimidazolidin-2-one]",< 100 nM
9,"CN1C(=O)N(c2ccc(-c3cn(C)c4ncnc(N)c34)c(F)c2)CC1c1ccc(F)c(Cl)c1 (single isomer, unassigned) [Example 133, 1-(4-(4-amino-7-methyl-7H-pyrrolo[2,3-d]pyrimidin-5-yl)-3-fluorophenyl)-4-(3-chloro-4-fluorophenyl)-3-methylimidazolidin-2-one]",< 100 nM
10,"CN1C(=O)N(c2ccc(-c3cn(C4CC4)c4ncnc(N)c34)c(F)c2)CC1c1cccc(Cl)c1 (single isomer, unassigned) [Example 152, 1-(4-(4-amino-7-cyclopropyl-7H-pyrrolo[2,3-d]pyrimidin-5-yl)-3-fluorophenyl)-4-(3-chlorophenyl)-3-methylimidazolidin-2-one]",< 100 nM
11,"CN1C(=O)N(c2ccc(-c3cn(C4CC4)c4ncnc(N)c34)c(F)c2)CC1c1ccc(F)cc1 (stereo not shown) [Example 162, 1-(4-(4-amino-7-cyclopropyl-7H-pyrrolo[2,3-d]pyrimidin-5-yl)-3-fluorophenyl)-4-(4-fluorophenyl)-3-methylimidazolidin-2-one]",< 100 nM
12,"Cc1nc(N)c2c(-c3ccc(N4CC(c5c(F)ccc(F)c5F)N(C)C4=O)cc3F)cn(C)c2n1 (stereo not shown) [Example 139, 1-(4-(4-amino-2,7-dimethyl-7H-pyrrolo[2,3-d]pyrimidin-5-yl)-3-fluorophenyl)-3-methyl-4-(2,3,6-trifluorophenyl)imidazolidin-2-one]",100 to 1000 nM
13,"CCN1C(=O)N(c2ccc(-c3cn(C4CC4)c4ncnc(N)c34)c(F)c2)CC1c1cc(F)ccc1F (stereo not shown) [Example 120, 1-(4-(4-amino-7-cyclopropyl-7H-pyrrolo[2,3-d]pyrimidin-5-yl)-3-fluorophenyl)-4-(2,5-difluorophenyl)-3-ethylimidazolidin-2-one]",< 100 nM
14,"CN1C(=O)N(c2ccc(-c3cn(C)c4ncnc(N)c34)c(Cl)c2)CC1c1cc(F)cc(F)c1 (single isomer, unassigned) [Example 128, 1-(4-(4-amino-7-methyl-7H-pyrrolo[2,3-d]pyrimidin-5-yl)-3-chlorophenyl)-4-(3,5-difluorophenyl)-3-methylimidazolidin-2-one]",< 100 nM
15,"Cc1nc(N)c2c(-c3ccc(N4CC(c5cncc(F)c5)N(C)C4=O)cc3F)cn(C)c2n1 (single isomer, unassigned) [Example 111, 1-(4-(4-amino-2,7-dimethyl-7H-pyrrolo[2,3-d]pyrimidin-5-yl)-3-fluorophenyl)-4-(5-fluoropyridin-3-yl)-3-methylimidazolidin-2-one]",100 to 1000 nM
16,"Cc1cc(N2CC(c3cc(F)cc(F)c3)N(C)C2=O)ccc1-c1cn(C)c2ncnc(N)c12 (stereo not shown) [Example 118, 1-(4-(4-amino-7-methyl-7H-pyrrolo[2,3-d]pyrimidin-5-yl)-3-methylphenyl)-4-(3,5-difluorophenyl)-3-methylimidazolidin-2-one]",< 100 nM

# The remaining lines, values ahead:
row,IC50,SMILES
1,< 100 nM,"Cn1cc(-c2ccc(N3CC(c4ccc(F)cc4F)N(CC(F)(F)F)C3=O)cc2F)c2c(N)ncnc21 (stereo not shown) [Example 79, 1-(4-(4-amino-7-methyl-7H-pyrrolo[2,3-d]pyrimidin-5-yl)-3-fluorophenyl)-4-(2,4-difluorophenyl)-3-(2,2,2-trifluoroethyl)imidazolidin-2-one]"
2,100 to 1000 nM,"CCN1C(=O)N(c2ccc(-c3cn(C)c4ncnc(N)c34)c(F)c2)CC1c1cc(F)cc(F)c1F (stereo not shown) [Example 55, 1-(4-(4-amino-7-methyl-7H-pyrrolo[2,3-d]pyrimidin-5-yl)-3-fluorophenyl)-3-ethyl-4-(2,3,5-trifluorophenyl)imidazolidin-2-one]"
3,100 to 1000 nM,"CCN1C(=O)N(c2ccc(-c3cn(CC(F)F)c4ncnc(N)c34)c(F)c2)CC1c1cc(F)ccc1F (stereo not shown) [Example 17, 1-(4-(4-amino-7-(2,2-difluoroethyl)-7H-pyrrolo[2,3-d]pyrimidin-5-yl)-3-fluorophenyl)-4-(2,5-difluorophenyl)-3-ethylimidazolidin-2-one]"
4,< 100 nM,"CCN1C(=O)N(c2ccc(-c3cn(C4CC4)c4ncnc(N)c34)c(F)c2)CC1c1ccc(F)cc1F (stereo not shown) [Example 107, 1-(4-(4-amino-7-cyclopropyl-7H-pyrrolo[2,3-d]pyrimidin-5-yl)-3-fluorophenyl)-4-(2,4-difluorophenyl)-3-ethylimidazolidin-2-one]"
5,100 to 1000 nM,"CN1C(=O)N(c2ccc(-c3cn(C)c4ncnc(N)c34)c(F)c2)CC1c1cc(Cl)ccc1F (stereo not shown) [Example 53, 1-(4-(4-amino-7-methyl-7H-pyrrolo[2,3-d]pyrimidin-5-yl)-3-fluorophenyl)-4-(5-chloro-2-fluorophenyl)-3-methylimidazolidin-2-one]"
6,100 to 1000 nM,"CN1C(=O)N(c2ccc(-c3cn(C)c4ncnc(N)c34)c(F)c2)CC1c1cc(F)cc(F)c1F (stereo not shown) [Example 56, 1-(4-(4-amino-7-methyl-7H-pyrrolo[2,3-d]pyrimidin-5-yl)-3-fluorophenyl)-3-methyl-4-(2,3,5-trifluorophenyl)imidazolidin-2-one]"
7,< 100 nM,"CN1C(=O)N(c2ccc(-c3cn(C)c4ncnc(N)c34)c(F)c2)CC1c1cc(F)cc(F)c1F (single isomer, unassigned) [Example 140, 1-(4-(4-amino-7-methyl-7H-pyrrolo[2,3-d]pyrimidin-5-yl)-3-fluorophenyl)-3-methyl-4-(2,3,5-trifluorophenyl)imidazolidin-2-one]"
